Test results taken from patent publication US7579448B2, “Purification of microbial cell fermentation homogenates” (Genentech, Inc., priority 2003, dated 2009).

How the values were obtained:
[1] = Ethacridine lactate solubility at increasing NaCl concentrations; format: physicochemical
Description: The samples were incubated for three hours at room temperature before the concentration of soluble ethacridine lactate was determined. The open keys symbolize the 1.2% ethacridine lactate solution and the closed keys the 0.6% solution. The solid line is the 0.6% ethacridine lactate solution at pH 6.0, the broken line is the 1.2% ethacridine lactate solution at pH 6, the dotted line is the 0.6% ethacridine lactate solution at pH 9, and the broken line with dots is the 1.2% ethacridine lactate solution at pH 9.
Two ethacridine lactate solutions, i.e., 0.6 and 1.2%, were studied. Each solution was divided into two aliquots and pH adjusted to 6.0 and 9.0, respectively. To obtain a slight buffer capacity in the system, the ethacridine lactate was dissolved in 10 mM Tris-HCl buffer. Each ethacridine lactate solution was exposed to increasing amounts of NaCl, i.e., 0, 50, 100, 150, 200, 300, and 600 mM. The samples were incubated for 3 hours, then centrifuged for 20 minutes at 12000 g in a microfuge (SORVALL MC12V™, DuPont, Wilmington, Del., USA). The supernatants were assayed for ethacridine lactate by measuring the absorption at 270 nm. The spectrophotometer used was a HP8453 UV-VIS™ from Hewlett Packard (Wilmington, Del.), now Aligent Technologies (Palo Alto, Calif.) and known as the AGILENT 8453 UV-VIS™ spectrophotometer. A standard curve was derived from a solution with known ethacridine lactate concentration.

[2] = Conductivity study: NaCl added to anti-CD18 homogenate with 0.6% ethacridine lactate; format: physicochemical; settings: 100 mM NaCl, anti-CD18 homogenate diluted 4-fold
Description: Various concentrations of NaCl were added to anti-CD18 homogenate to evaluate the effect of conductivity on protein precipitation. The NaCl concentrations studied were 0, 50, 100, 150, 200, and 400 mM. A reference series without ethacridine lactate was also performed to determine if any protein was precipitated due to the high salt concentration. The pH in this salt spike study was 8.5 and the anti-CD18 homogenate was diluted 4-fold. The ethacridine lactate concentration in the samples was 0.6% and 0% for the reference experiments.

CC(O)C(=O)O.CCOc1ccc2nc3cc(N)ccc3c(N)c2c1 [ethacridine lactate, 6,9-diamino-2-ethoxyacridine lactate]
solubility of ethacridine lactate ([1]; pH 6, 0.6 and 1.2% solutions, 50 mM NaCl, 3 hours at room temperature): soluble
solubility of ethacridine lactate ([1]; pH 6, 0.6 and 1.2% solutions, 100 mM NaCl, 3 hours at room temperature): nearly fully precipitated
solubility of ethacridine lactate ([1]; pH 9, 0.6% solution compared with 1.2% solution, increasing NaCl): precipitated at lower salt concentration than the more concentrated ethacridine lactate solution
precipitation of ethacridine lactate in the extraction system [2]: precipitation of ethacridine lactate was observed
